Experimental data reported in patent US7094752B2 (Chiron Corporation, priority 1997, dated 2006).
Entries after “also recorded” stand apart in the source; their conditions may differ. Where two headings read alike, the source gives them in different places. Ends that are not written are not given here.

How the values were obtained:
[1] = target: T1, uPA1–48:uPAR complexes binding to vitronectin (Homo sapiens, UniProt Q03405); assay: Vitronectin binding assay (ELISA); conditions: 20 nM biotinylated suPAR, 20 nM uPA1–48
T1 construct: sUPAR, soluble truncated form of the urokinase receptor; made in house; host or cells: suPAR: baculovirus-infected Sf9 cells; uPA1-48: recombinant yeast; vitronectin: purified from human plasma
Protocol: Vitronectin was purified from human plasma by the method of Yatohgo et al, Cello Struct.and Funct. 13: 281–292 (1988). Purified vitronectin was diluted to 20 μg/ml in PBS containing 1 mM CaCl2 and 0.5 mM MgCl2, dispensed at 50 μl/well into Immulon II wells (Dynatech, Chantilly, Va.), incubated overnight at 4° C. and washed with PBS/BSA. Biotinylated sUPAR was diluted to 20 nM in PBS/BSA, incubated with or without test ligand for 30 minutes at room temperature (22° C.), dispensed at 100 μl/well and incubated for 90 minutes. Wells were then washed and horseradish peroxidase (HRP)-conjugated streptavidin was added at 0.4 μg/ml in PBS/2% BSA for 1 hour followed by washing and addition of 100 μl/well TMB substrate. The color development was stopped with 100 μl of 0.8N H2SO4 and the absorbance at 450 nm measured in a 96 well plate reader (Dynatech, Chantilly, Va.). Antagonistic effects of test ligands were measured as described above except the ligands were incubated with 20 nM biotinylated suPAR in the presence of 20 nM uPA1–48.
In order to analyze the effects of the various peptide ligands on the uPAR:vitronectin interaction, we developed an in vitro ELISA based assay for this interaction, in which biotinylated suPAR and uPA1–48 bind to immobilized, urea purified vitronectin, and the bound sUPAR is detected with HRP conjugated streptavidin. Under the conditions of the assay binding of biotinylated uPAR to vitronectin is strictly dependent on uPA1–48, as shown in FIG. 1.

uPA1–48:suPAR complex = target: T2, uPA1–48:suPAR complex (Homo sapiens, UniProt Q03405); assay: Bacteriophage 7 and 18 binding to uPA1–48:suPAR complex in presence of vitronectin; conditions: clone 7 and 18 bacteriophage
T2 construct: sUPAR, soluble truncated form of the urokinase receptor; made in house; host or cells: suPAR: baculovirus-infected Sf9 cells; uPA1-48: recombinant yeast
Protocol: The ability of the various bacteriophage derived peptides to affect binding of uPA1–48:uPAR complexes to vitronectin was assessed in the ELISA assay. Two classes of peptides were effective antagonists in this assay. […] None of the peptides when tested alone increased the binding of biotinylated suPAR to vitronectin. […] In order to test whether the clone 7 and 18 peptides bound directly at the vitronectin binding site on uPAR, and inhibited vitronectin binding by uPAR:uPA1–48 by direct competition for that site, the inventors examined the effects of vitronectin on the binding of these bacteriophage. Vitronectin reduced bacteriophage binding to the uPA1–48:suPAR complex by 5–10 fold, consistent with the hypothesis that these peptides mimic vitronectin as a uPAR ligand.

nontransfected 293 cells = assay: Adhesion of nontransfected 293 cells to fibronectin or collagen; format: cell-based; conditions: recombinant soluble uPAR added, dose dependent
Excerpt: To explore whether uPAR binds to integrins, nontransfected 293 cells were allowed to adhere to fibronectin or collagen in the presence of recombinant soluble uPAR (suPAR).

suPAR [2] = target: T3, suPAR (Homo sapiens, UniProt Q03405); assay: suPAR binding assay (competition for uPA1–48 binding); conditions: synthetic peptide
T3 construct: sUPAR, soluble truncated form of the urokinase receptor; made in house; host or cells: baculovirus-infected Sf9 insect cells
Protocol: Twenty-eight independent bacteriophage were isolated and the random peptide encoding DNA segments sequenced. […] This is in contrast to previous results of affinity selection on uPAR alone, where the majority of selected bacteriophage bound with substantial yield as described in Goodson et al, Proc.Natl.Acad.Sci. USA 91: 7129–7133 (1994). The yields of these four bacteriophage were determined on suPAR in the presence and absence of uPA1–48. In addition, the encoded peptides were synthesized and tested as competitors in a suPAR binding assay as described in Stratton-Thomas et al, Prot.Eng. 8: 463–470 (1995), and Kaufman et al Anal.Biochem. 211: 261–266 (1993).

[3] = system: uPAR mediated adhesion of stimulated U937 cells; assay: Adhesion of stimulated U937 cells to vitronectin; format: cell-based
Excerpt: Previous results had shown that vitronectin binding by uPAR correlated with cell adhesion of stimulated U937 cells as described in Wei et al, J. Biol. Chem. 269: 32380–32388 (1994). It was found also that clone 7 peptide could block uPAR mediated adhesion of these cells, whereas the scrambled version of the same peptide had no effect.

suPAR [4] = target: T3, suPAR; assay: SuPAR:1-anilino-8-napthalenesulfonate (ANS) fluorescence; format: binding; conditions: 2 μM sUPAR, 10 μM ANS, 0 to 20 μM competitor
Protocol: Determination of the effect of various peptide ligands on sUPAR/ANS fluorescence was performed following a procedure similar to that of Ploug et al, Biochem. 33: 8991–8997 (1994). Fluorescence emission spectra of sUPAR/ANS solutions with or without competitors were obtained using an Hitachi F-4500 fluorescence spectrophotometer with an excitation wavelength of 386 nm, 5-nm band-pass excitation and emission slits, and a 10 mm path length quartz cuvette. The emission spectra from 400 to 600 nm were recorded. For competition measurements, dilutions of a stock sUPAR/ANS solution were made to give individual 0.5 ml aliquots with a final concentration of 2 μM sUPAR, 10 μM ANS, and 0 to 20 μM competitor in PBS containing 10% DMSO. Fluorescence measurements were made after a one hour incubation at 25° C.

sUPAR domain 2–3 (D23) = target: T4, sUPAR domain 2–3 (D23) (Homo sapiens, UniProt Q03405); assay: Bacteriophage binding to sUPAR domain 2/3; conditions: phage-displayed peptide
T4 construct: domains 2 and 3 (amino acids 93–313); made in house; host or cells: baculovirus infected Sf9 insect cells
Protocol: FIG. 5. Bacteriophage binding to sUPAR domain 2/3. Phage were added to wells containing sUPAR domain 2/3 immobilized by its epitope tag via protein G and monoclonal antibody to the epitope tag. Wells containing protein G and antibody but no domain 2/3 were included to determine nonspecific phage binding. Urea-eluted phage and the input stocks were titered by plaque formation assay. Results were single point determinations calculated as a percent of the input titer and were repeated in three separate experiments.
It was also shown by the inventors that bacteriophage bound to sUPAR domain 2–3fragment. Protein G, 100μl, 1 mg/ml in 50 mM Na2CO3, pH9.6, was added to MaxiSorp wells, incubated overnight at 4° C. and then washed with PBS/BSA. Fifty μl of monoclonal antibody to the epitope tag EYMPME (SEQ ID NO: 18) was added at 1 mg/ml in PBS/BSA and incubated for 2 hours at room temperature. The wells were washed, recombinant sUPAR domain 2–3 (1.7 μM in PBS/BSA) was added and incubated for 1.5 hours at room temperature. The wells were washed prior to the addition of bacteriophage (approximately 10^8 pfu), and then treated as described in the previous section for binding to suPAR.

uPAR = target: T5, uPAR (Homo sapiens, UniProt Q03405); assay: IC 50 (uM)^2
T5 construct: sUPAR, soluble truncated form of the urokinase receptor; made in house; host or cells: baculovirus-infected Sf9 insect cells
Protocol: Table printed on a drawing sheet, FIG. 6
Head of the field: IC 50 (uM)^2
The patent's description of the figure: FIG 6: Table. The table of FIG 6 depicts the sequences (SEQ ID NOS:12–17), phage yields, and IC50s in uPAR binding assays for selected phage peptides. Legend: 1. Individual phage were incubated with biotinylated suPAR with and without 10 μM uPA1–48 on streptavidin coated wells as described herein. The background yields of all phage without SuPAR in the wells ranged from 0.002–0.025%. Errors in yield are in the range 50%. 2. Apparent inhibition constant of the synthetic peptide in the uPAR receptor binding assay; errors are in the range of 20%. 3. NT=not determined because of peptide insolubility. 4. Clone 20 and 13–32 peptides were as described previously.
First copying reader's note: The head is printed shifted: 'Phage Yield' covers the -1-48 and +1-48 columns and 'IC 50 (uM)' belongs to the last column; the raised marks 1-4 refer to a legend that is not printed on the sheet.
Where the first naming reader finds the target: description_of_the_figure: IC50s in uPAR binding assays for selected phage peptides

T4 sequence (Q03405 115-335): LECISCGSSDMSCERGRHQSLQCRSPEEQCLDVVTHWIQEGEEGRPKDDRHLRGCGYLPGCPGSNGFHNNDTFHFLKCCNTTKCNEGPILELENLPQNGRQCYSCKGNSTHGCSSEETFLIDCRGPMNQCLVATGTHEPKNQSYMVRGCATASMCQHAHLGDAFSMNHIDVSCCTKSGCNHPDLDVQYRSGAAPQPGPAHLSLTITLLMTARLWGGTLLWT
T3 sequence (Q03405 23-305 limits assumed): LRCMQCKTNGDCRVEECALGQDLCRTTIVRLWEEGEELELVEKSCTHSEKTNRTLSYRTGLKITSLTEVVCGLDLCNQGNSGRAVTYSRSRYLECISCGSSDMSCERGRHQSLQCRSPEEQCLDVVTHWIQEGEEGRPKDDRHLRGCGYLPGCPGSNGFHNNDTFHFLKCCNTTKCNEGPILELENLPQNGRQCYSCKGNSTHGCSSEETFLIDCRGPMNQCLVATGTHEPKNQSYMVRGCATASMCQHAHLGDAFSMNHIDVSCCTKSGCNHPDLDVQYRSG
T1 sequence (Q03405 23-305 limits assumed, one chain of several): as the sequence (Q03405 23-305 limits assumed) above
T5 sequence (Q03405 whole entry, looked up, the tested form may be a part): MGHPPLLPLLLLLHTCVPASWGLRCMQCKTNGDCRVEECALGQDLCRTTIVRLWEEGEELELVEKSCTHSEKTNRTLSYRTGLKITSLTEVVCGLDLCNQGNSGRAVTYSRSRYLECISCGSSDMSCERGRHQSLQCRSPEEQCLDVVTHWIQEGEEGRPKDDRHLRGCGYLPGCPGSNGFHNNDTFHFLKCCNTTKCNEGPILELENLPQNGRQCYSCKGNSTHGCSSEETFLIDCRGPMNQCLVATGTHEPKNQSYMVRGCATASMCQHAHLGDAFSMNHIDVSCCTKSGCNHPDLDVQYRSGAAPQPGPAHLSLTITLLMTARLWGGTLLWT
T2 sequence (Q03405 23-305, other chains not shown): as the sequence (Q03405 23-305 limits assumed) above

Substance	effect on binding of uPA1–48:uPAR complexes to vitronectin [1]	competition for uPA1–48 binding to sUPAR / receptor binding activity (in words) (suPAR [2])	bacteriophage binding to immobilized D23 versus sUPAR (sUPAR domain 2–3 (D23))	IC50 (uPAR) [µM]	further results
vitronectin: vitronectin purified from human plasma	blocked				reduction of bacteriophage binding to the uPA1–48:suPAR complex (uPA1–48:suPAR complex): 5–10 fold
suPAR: soluble recombinant human urokinase receptor from baculovirus-infected Sf9 insect cells					adhesion of nontransfected 293 cells to fibronectin and collagen (nontransfected 293 cells): inhibited adhesion
AEPVYQYELDSYLRSYY-NH2 [peptide 7]	inhibits complex binding to vitronectin	greatly reduced competition for uPA1–48 binding	intermediate degree of binding to D23	10	effect on binding of uPA1–48:uPAR complexes to vitronectin ([1]; listed as clone 7): inhibit complex binding; block of uPAR mediated adhesion of stimulated U937 cells to vitronectin ([3]; listed as clone 7): effective blocker; block of uPAR mediated adhesion of stimulated U937 cells to vitronectin ([3]; listed as clone 7 peptide): could block; effect on ANS fluorescence enhancement in the presence of uPAR (suPAR [4]): reduced fluorescence in a dose dependent manner; reduced binding to D23 versus suPAR (sUPAR domain 2–3 (D23)): about 50 fold
AE PMPHSLNFSQYAWYT [analog of clone 20 peptide, reference compound]	did not affect binding to vitronectin	greatly reduced receptor binding activity			
AELDLSTFYDIQYLLRT-NH2 [peptide 18]	blocks binding of complexes to vitronectin	greatly reduced competition for uPA1–48 binding	intermediate degree of binding to D23	10	effect on binding of uPA1–48:uPAR complexes to vitronectin ([1]; listed as clone 18): inhibit complex binding
uPA13–32: amino acids 13–32 of human urokinase with Cys19 converted to Ala (CLNGGTAVSNKYFSNIHWCN) [reference compound]	reduce binding	compete directly for uPA1–48 binding	bind signficantly only to intact sUPAR		
H-AESTYHHLSLGYMYTLN-NH2 [compound 25]				> 10	
VEYRDAYSYPQYLSYLE [scrambled version of clone 7, same amino acids as clone 7, but in a different order, reference compound]	did not; also recorded: does not				block of uPAR mediated adhesion of stimulated U937 cells to vitronectin [3]: no effect
CLNGGTAVSNKYFSNLHWC [13-32^4]				0.25	
H-AEPMPHSLNFSQYLWYT-NH2 [20^4]				0.01	
